Residues, ends and D or L forms follow the SMILES beside them. *: point of attachment. Cbz = O=C(OCc1ccccc1)*; CH2F = FC*
Key:
HCT116 cells = experiment: Annexin V (and SytoxBlue) flow cytometry for apoptosis; format: cell-based, Homo sapiens; conditions: for Annexin V +, Sytox Blue + cells / Annexin V +, Sytox Blue - cells / Annexin V -, Sytox Blue - cells: transfected 24 hr, no z-VAD
Description: Cells seeded in a 6-well plate were transfected with the specified plasmid for 24 hr and harvested via trypsinization in complete media to allow a 30 min recovery at 37°C. The samples were then centrifuged at 500xg for 5 min and resuspended In 150 μl of a 1:20 dilution of Annexin V-AlexaFluor 647 conjugate (Thermo Scientific #A23204). Samples were transferred to a 96-well U-bottom plate and incubated in the dark for 15 min at RT. The distribution of apoptotic cells was determined by flow cytometry on a BD LSR II.

[1] = test system: DR5 / ERGIC53 / giantin in HCT116 cells; experiment: Immunofluorescence co-localization (Pearson's correlation per cell); format: cell-based, Homo sapiens; conditions: for Pearson's correlation per cell of GFP-tagged peptide with DR5 / Pearson's correlation per cell of GFP-tagged peptide with ERGIC: HCT116, 24 hr post-transfection; for Pearson's correlation per cell of GFP-tagged peptide with DR5 / Pearson's correlation per cell of GFP-tagged peptide with ERGIC / Pearson's correlation per cell between DR5 and ERGIC: Mean ± SEM; for Pearson's correlation per cell between DR5 and ERGIC: HCT116 expressing GFP-tagged peptide, 24 hr
Description: HCT116 were seeded at 25000 cells per well in an 8-well glass-bottom μSlide (Ibidi 80827) pre-coated with Collagen IV (Sigma-Aldrich C6745, 0.03 mg/ml in PBS incubated for 30 min at RT, and then rinsed off with PBS x 3) in growth media 18 hr prior to transfection (see above for protocol). 24 hr post-transfection, the cells were fixed using 4% paraformaldehyde (PFA, Electron Microscopy Sciences) or methanol, depending on the antibody combination used for immunostaining (see table below). Samples were protected from light after fixation to preserve GFP fluorescence.
For fixation with 4% PFA, 32% PFA was added directly to the well in growth media for a 1:8 dilution and incubated for 10–15 min at RT. Cells were then permeabilized with PHEM buffer (60 mM PIPES, 25 mM HEPES, 10 mM EGTA, 2 mM MgCl2-hexahydrate, pH 6.9) containing 0.1% Triton-X100 for 10 min at RT for three washes.
For fixation with methanol, media was removed and cells were washed with cold PBS. Then methanol (pre-cooled at −20°C) was added to the well and incubated at −20°C for 3–4 min. The methanol was promptly aspirated and replaced with PHEM buffer (without Triton X-100), followed by two more 10 min washes with PHEM at RT.
To block against non-specific antibody interactions, cells were rinsed in PHEM (without 0.1% Triton X-100) and then incubated with PHEM containing 2% normal goat serum (Jackson Immunoresearch Laboratories, 005-000-121) for 1 hr at RT. Primary antibodies were incubated in blocking solution overnight at 4°C at the dilution noted in the table above. Cells were then washed with PHEM buffer for 10 min at RT x three and incubated with secondary antibodies, anti-mouse-AlexaFluor546 (Invitrogen A11030) and anti-rabbit-AlexaFluor633 (Invitrogen A21071), diluted 1:1000 in PHEM with 2% normal goat serum. (Secondary antibody solutions were centrifuged at 15000xg for 20 mins at 4°C to remove aggregates prior to incubating with cell samples.) After a 1 hr incubation at RT, cells were washed with PHEM buffer once, then incubated with PHEM buffer containing nuclear stain (DAPI, Molecular Probes, Eugene, OR, D-1306, 5 μg/mL), and finally rinsed with PHEM buffer twice before imaging.
Samples were imaged on a spinning disk confocal with Yokogawa CSUX A1 scan head, Andor iXon EMCCD camera, and 40x Plan Apo air Objective NA 0.95 or 100x ApoTIRF objective NA 1.49 (Nikon).
From the 405 nm channel, cell nuclei were identified as primary objects using maximum correlation thresholding (MCT) and shape to distinguish clumped objects. Secondary objects were outlined using propagation from the nuclei (DAPI) after applying MCT from the 488 nm, 561 nm, and 633 nm channels. Tertiary objects for each cell was identified as the mask of each nucleus subtracted from the mask of its corresponding secondary object in each channel, yielding masks for intracellular GFP-tagged protein from the 488 nm channel, for intracellular DR5 from the 561 nm channel, and for the organelle marker in the 633 nm channel. For overlap between DR5 and MPZ/RHO-GFP, Pearson’s correlation coefficients were calculated within the MPZ/RHO mask for each cell to filter out untransfected cells. For overlap between DR5/MPZ and organelle markers, Pearson’s correlation coefficients were calculated within tertiary objects for the organelle marker in GFP+ cells. Statistical analyses for all data sets were performed using GraphPad Prism 6.0.

DR5 ECD = experiment: Peptide array binding of Fc-tagged DR5 ectodomain (MPZ and RHO sequences; amino acid enrichment); parameters: species or system human; conditions: rhodopsin EL1-EL3 peptide array; for Corrected rawintden - min: min subtracted; for normalized (binding intensity): normalized from corrected rawintden - min
Description: Peptide arrays were purchased from the MIT Biopolymers Laboratory as described previously in [Karagöz et al. (2017)] and [Gardner and Walter (2011)]. The sequences of each protein were tiled from N- to C-terminus in 18-amino-acid-long peptides shifting by three amino acids from the previous spot. The arrays were incubated in methanol for 10 min, and then washed in binding buffer (50 mM HEPES pH 7.2, 250 mM NaCl, 10% glycerol) for 10 min at room temperature x 3. 500 nM of Fc-tagged DR5 extracellular domain (ECD, a kind gift from Scot Marsters) was incubated with the array in binding buffer at room temperature for 1 hr. Then, the array was washed three times for 10 min with binding buffer to remove unbound protein. The bound DR5 ECD was then transferred onto a nitrocellulose membrane via a semi-dry transfer apparatus (Owl HEP-1) at 80 mA for 45 min at 4°C. The membrane was then blocked with 1xPBST with 5% milk for 1 hr at room temperature and probed with 1:1000 anti-Fc (One World Lab #603–510) overnight at 4°C followed by 1:10000 anti-mouse IgG-HRP (Promega #W4021) for 1 hr at RT. The membrane was imaged using chemi-luminescence with the Bio-Rad Universal Hood II Gel Doc below saturating pixel intensities. The signal of each spot was quantified using Max Quant and normalized to the maximum intensity of all the spots on the same array.

[2] = test system: caspase 8 in HCT116 lysates; experiment: Caspase 8 activity (caspase glo 8) of cell lysates / IP inputs; format: cell-based, Homo sapiens; conditions: for average fold change relative to empty: HCT116, rep 1, average of 4 dilutions; for norm RLUs: rep 2, normalized by lysate quant
Description: Cells harvested from a 6-well plate were resuspended in 100 μl of lysis buffer (30 mM HEPES pH 7.2, 150 mM NaCl, 1% Triton X-100) and lysed via needle shearing (25G, 10 passes) followed by a 30 min incubation on ice. Supernatant was collected after centrifuging at 1000xg for 5 min. For the caspase activity assay, 10 μl of supernatant diluted with lysis buffer (1:25, 1:50, 1:100 to stay within linear range of luminescence measurements) was incubated with 10 μl of the luminogenic caspase glo 8 substrate (Promega #PRG8200) in a 384-white walled plate (Corning 3574) for 45 min at RT before measuring luminescence on a Spectramax-M5 plate reader.

Row | Molecule | Corrected rawintden - min (DR5 ECD) | normalized (binding intensity) (DR5 ECD) | also measured
1 | CC(NC(=O)C(NC(=O)OCc1ccccc1)C(C)C)C(=O)NC(CC(=O)O)C(=O)CF (stereo not drawn) [zVAD, reference compound] (Cbz-Val-Ala-Asp-CH2F; configuration not given here) | – | – | annexin V staining with pan-caspase inhibitor (HCT116 cells; cells expressing MPZ-ecto peptide): diminished the extent of annexin V staining
2 | DR5 siRNA: siRNA oligonucleotides against DR5 (Dharmacon L-004448-00-0005) (guide AAGACCCUUGUGCUCGUUGUCUU; further chemistry not given here) [reference compound] | – | – | DR5 immunofluorescence signal ([1]; siRNA 48 hr, MPZ-GFP 24 hr): eliminated the DR5 signal; PARP cleavage and annexin V staining after DR5 knockdown (HCT116 cells; DR5 siRNA 48 hr, then MPZ-GFP overexpression 24 hr): significantly reduced PARP cleavage and annexin V staining
3 | EQPQYYLAEPWQLHGYFV | 507200 | 0.1237 | –
4 | ESTHQGSNFMNGTEGPNF | 320074 | 0.07803 | –
5 | ETEREQPEGGRDAISIEHEA [MPZ-ecto peptide^Arom→Glu-eGFP, expressed GFP-tagged construct with all aromatic residues of the MPZ-ecto peptide mutated to Glu] | – | – | Pearson's correlation per cell of GFP-tagged peptide with DR5 [1]: 0.27 ± 0.03; Pearson's correlation per cell of GFP-tagged peptide with ERGIC [1]: 0.25 ± 0.03; Pearson's correlation per cell between DR5 and ERGIC [1]: 0.50 ± 0.03; Annexin V +, Sytox Blue + cells (HCT116 cells): 8.17% of cells; Annexin V +, Sytox Blue - cells (HCT116 cells): 4.89% of cells; Annexin V -, Sytox Blue - cells (HCT116 cells): 86.5% of cells
6 | FGPTGCNLERYIPEGMQC | 1562181 | 0.3809 | –
7 | FSNVTGVVRSPFEQPQYY | 470277 | 0.1147 | –
8 | FTWREQPEGGRDAISIFHEA [MPZ-ecto peptide^Tyr→Glu-eGFP, expressed GFP-tagged construct with Tyr → Glu mutations in the MPZ-ecto peptide] | – | – | Pearson's correlation per cell of GFP-tagged peptide with DR5 [1]: 0.15 ± 0.03; Pearson's correlation per cell of GFP-tagged peptide with ERGIC [1]: 0.22 ± 0.05; Pearson's correlation per cell between DR5 and ERGIC [1]: 0.44 ± 0.04; Annexin V +, Sytox Blue + cells (HCT116 cells): 5.66% of cells; Annexin V +, Sytox Blue - cells (HCT116 cells): 3.64% of cells; Annexin V -, Sytox Blue - cells (HCT116 cells): 90.3% of cells
9 | HQGSNFMNGTEGPNFYVP | 360135 | 0.0878 | –
10 | IDYYTLKPEVNNESTHQG | 1420533 | 0.3463 | –
11 | INS1 | – | – | average fold change relative to empty ([2]; siDR5): 1.524 fold change; average fold change relative to empty ([2]; siNT): 2.0013 fold change
12 | KPEVNNESTHQGSNFMNG | 941789 | 0.2296 | –
13 | LAEPWQLHGYFVFGPTGC | 890759 | 0.2172 | –
14 | LHGYFVFGPTGCNLERYI | 1142815 | 0.2786 | –
15 | MNGTEGPNFYVPFSNVTG | 827091 | 0.2016 | –
16 | MQCSCGIDYYTLKPEVNN | 1701232 | 0.4148 | –
17 | NLERYIPEGMQCSCGIDY | 395368 | 0.09639 | –

Row | Molecule | Corrected rawintden - min (DR5 ECD) | normalized (binding intensity) (DR5 ECD) | also measured
18 | PEGMQCSCGIDYYTLKPE | 1657676 | 0.4041 | –
19 | PNFYVPFSNVTGVVRSPF | 624655 | 0.1523 | –
20 | PWQLHGYFVFGPTGCNLE | 1093768 | 0.2667 | –
21 | QYYLAEPWQLHGYFVFGP | 996384 | 0.2429 | –
22 | RYIPEGMQCSCGIDYYTL | 1340468 | 0.3268 | –
23 | SCGIDYYTLKPEVNNEST | 1488599 | 0.3629 | –
24 | SNFMNGTEGPNFYVPFSN | 337810 | 0.08236 | –
25 | SPFEQPQYYLAEPWQLHG | 517083 | 0.1261 | –
26 | TEGPNFYVPFSNVTGVVR | 1182345 | 0.2883 | –
27 | TGCNLERYIPEGMQCSCG | 1149984 | 0.2804 | –
28 | VNNESTHQGSNFMNGTEG | 294091 | 0.0717 | –
29 | VTGVVRSPFEQPQYYLAE | 402567 | 0.09815 | –
30 | VVRSPFEQPQYYLAEPWQ | 375649 | 0.09158 | –
31 | YFVFGPTGCNLERYIPEG | 490636 | 0.1196 | –
32 | YTLKPEVNNESTHQGSNF | 870062 | 0.2121 | –
33 | YVPFSNVTGVVRSPFEQP | 640840 | 0.1562 | –
34 | insGFP | – | – | norm RLUs ([2]; dilution 0.025): 1827.1 RLUs; norm RLUs ([2]; dilution 0.05): 3654.19 RLUs; norm RLUs ([2]; dilution 0.1): 8264.86 RLUs
